{"source": "paper PMC11802874", "about": "“The hypolipidemic effect of MI-883, the combined CAR agonist/ PXR antagonist, in diet-induced hypercholesterolemia model” (Nature Communications, 2025)", "key": {"[1]": {"tested_on": "Salmonella typhimurium TA 98, TA 100, TA 1535, TA 1537; Escherichia coli WP2 uvrA", "experiment": "Reverse-mutation Ames test / Bacterial Reverse Mutation Test", "conditions": "with and without metabolic activation", "excerpt": "The mutagenic activity of MI-883 was detected using the commercially available Muta-ChromoPlate bacterial strain kit (ebpi, Mississauga, Ontario, Canada), which is a 96-well microplate version of the reverse-mutation Salmonella typhimurium Ames test with S9 rat-liver extract. Salmonella typhimurium tester strains TA 98 (detection of frameshift mutagens) and TA 100 (detection of base-exchange mutations) were used as we described before^1.\nConsistently, Bacterial Reverse Mutation Test was performed as a service at Research Institute for Organic Syntheses Inc., (Pardubice, Czech Republic) in Salmonella typhimurium strains TA 98, TA 100, TA 1535, TA 1537, and one indicator Escherichia coli WP2 uvrA strains. The report is available after request."}, "[2]": {"tested_on": "humanized PXR-CAR-CYP3A4/3A7 mice", "experiment": "Bile acid analysis in plasma, liver and stool (HFD study)", "format": "in vivo, mouse", "procedure": "Materials and reagents and sample preparation have been described in our last paper[63] (see Supplementary, Chapter 12). Concentrations of bile acids in plasma, bile, and feces were determined using the UHPLC-MS method. The bile acids separation was conducted on the ACQUITY UPLC I-Class System (Waters, Milford, MA, USA) using a Triart C18 column (50 mm × 2.1 mm ID, 1.9 µm) from YMC, Japan. The column was maintained at 45 °C and was safeguarded by a disposable CrudCatcher in-line filter (Phenomenex, Torrance, CA, USA). The mobile phase flowed at a rate of 0.35 mL/min and consisted of solvent A (0.5 mmol/L ammonium acetate, 0.001% v/v acetic acid in water) and solvent B (0.5 mmol/L ammonium acetate, 0.001% v/v acetic acid in a 3:1 v/v mixture of methanol and acetonitrile). The gradient program followed this sequence. […] This was succeeded by an isocratic washout with 95% (v/v) solvent B from 9.0 to 10.5 min, followed by equilibration with 40% (v/v) solvent B from 10.5 to 12 min. 2 μL of sample were injected into column. Column effluent was monitored with Xevo TQ-XS triple quadrupole detector operated in positive electrospray mode. Further details can be found in the publication by Uher et al.[72].\nThe processing of the UHPLC-MS data was performed using TargetLynx software (Waters, Milford, MA, USA). The ratio of an analyte’s peak area and the internal standard was evaluated against a calibration curve, and the concentration for each bile acid was calculated. For further data analysis, the concentrations of individual BAs were summed to calculate the concentration of conjugated, unconjugated, 12-OH, non-12-OH, and total bile acids.\nTo cover a wide concentration range of bile acids, two sets of plasma aliquots were prepared. The first set, with a volume of 10 μL, was diluted tenfold with MilliQ water. The second set, with a volume of 100 μL, was used without dilution, and the subsequent procedure remained identical for both sets. […]"}, "[3]": {"tested_on": "humanized PXR-CAR-CYP3A4/3A7 mice, liver", "experiment": "Liver cholesterol, C4 and lathosterol analysis (HFD study)", "format": "in vivo, mouse", "parameters": "liver total cholesterol (TotCh), individual animals / liver free cholesterol (Free CH), individual animals / liver cholesteryl esters (CE), individual animals / liver C4, individual animals / liver lathosterol, individual animals: unit not given here", "procedure": "Cholesterol (Ch, total and free Ch), C4, and lathosterol determination were performed in liver tissue (25–80 mg fresh weight) using GC-MS according to Cohen et al.[67] (detailed protocol in Supplementary, Chapter 14). Internal standard (d7-cholesterol, Sigma Aldrich/Merck) was used. Solid phase extraction[68] and analysis were performed using LC-MS/MS as described previously. Protein quantification was done using DC Protein Assay (Bio-Rad) according to manufacturer instructions (micro assay format). All samples were analyzed for protein content in triplicates and analyzed.\nLiver tissue (25-80 mg fresh weight) was diluted 10x with PBS (by weight), cut into small pieces using scissors, and treated with multiple (10-20) short pulses of ultrasound until a smooth homogenate was obtained. This 10% liver sonicate was used in subsequent analyses.\nLathosterol was measured using the same procedure as for free cholesterol with slight modifications: the volume of liver homogenate as well as the injection volume were increased (100 µL and 2 µL, respectively) while the amount of internal standard was reduced to approximately 100 ng. Also, the mixture was sonicated for 10 minutes after adding ethanol.\nLiver sonicate (10%) was further diluted 30x (by weight) and 5 µL was analyzed using DC Protein Assay (Bio-Rad) according to manufacturer instructions (microassay format). Bovine serum albumin was used as standard. All samples were analyzed in triplicates."}, "LXRα": {"target": "LXRα (Homo sapiens, UniProt Q13133)", "sequence (Q13133 209-447 limits assumed)": "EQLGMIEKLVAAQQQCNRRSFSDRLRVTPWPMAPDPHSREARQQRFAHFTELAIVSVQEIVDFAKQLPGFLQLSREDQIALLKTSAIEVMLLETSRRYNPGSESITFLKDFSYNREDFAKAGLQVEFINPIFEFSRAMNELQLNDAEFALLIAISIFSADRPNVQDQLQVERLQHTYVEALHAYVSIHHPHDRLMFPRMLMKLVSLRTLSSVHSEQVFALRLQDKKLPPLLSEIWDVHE", "experiment": "Luciferase reporter gene assay LXRα, HepG2", "quoted_text": "Gal4-LBD constructs of tested nuclear receptors have been used together with pGL4.31[luc2P/GAL4UAS/Hygro] luciferase reporter construct and pRL-TK Renilla expression vector (both from Promega, Hercules, USA) in HepG2 cells transfected with Lipofectamine 2000 or 3000 reagents. For GRα and FXR receptors, full-length expression vectors have been used with pGRE-luc or pFXRE-luc luciferase constructs. For the aryl hydrocarbon receptor (AhR), p1A1-luc construct was used with only pRL-TK vector for transfection normalization. A dual reporter assay (Promega, Hercules, USA) was used to analyze both firefly and Renilla luciferase activities.\nGal4-LBD constructs of tested nuclear receptors have been used together with pGL5-luc luciferase reporter construct and pRL-TK Renilla expression vector in HepG2 cells transfected with Lipofectamine 2000 or 3000 reagents. For GRα and FXR receptors, full-length expression vectors have been used with pGRE-luc or pFXRE-luc luciferase constructs. For the aryl hydrocarbon receptor (AhR), p1A1-luc construct was used with only pRL-TK vector for transfection normalization. […] Bars represent means±S.D. (n=3)."}, "[4]": {"conditions": "male mice, MI-883 5 mg/kg 3× per week p.o., unit not given, 5 mg/kg"}}, "note": "Where “and” joins values, the source holds several entries; their conditions need not be identical. Identical values can stand only once. Entries after “also recorded” stand apart in the source; their conditions may differ."}
{"smiles": "NC(=O)c1cc(Cn2cc(-c3c(-c4ccc(Cl)cc4)nc4cc(F)ccn34)nn2)ccc1Cl", "note": "[MI-883, 2-chloro-5-((4-(2-(4-chlorophenyl)-7-fluoroimidazo[1,2-a]pyridin-3-yl)-1H-1,2,3-triazol-1-yl)methyl)benzamide]", "values": [{"measurement": "genotoxicity / mutagenicity", "setting": "[1]", "result": "not genotoxic; also recorded: nonmutagenic"}, {"measurement": "total BA content in the stool after 24 h", "setting": "[2]", "result": "significant increase"}, {"measurement": "total bile acid concentration in plasma and livers", "setting": "[2]", "result": "not affected"}, {"measurement": "βMCA and CDCA in the stool", "setting": "[2]", "result": "significant (P < 0.05) increase"}, {"measurement": "free cholesterol in the liver (per liver protein or LW)", "setting": "[3]", "result": "significantly decreased"}, {"measurement": "liver C4 and C4/total cholesterol", "setting": "[3]", "result": "did not increase"}, {"measurement": "liver lathosterol, total cholesterol, cholesteryl esters (CE)", "setting": "[3]", "result": "did not show significant changes"}, {"measurement": "liver C4, individual animals", "setting": "[3]; [4]", "result": "742.5 and 1060.6 and 588.1 and 517.8 and 1677.1 and 810.7 and 1283.7 and 1057.8 and 1099.9"}, {"measurement": "liver cholesteryl esters (CE), individual animals", "setting": "[3]; [4]", "result": "23 and 16.4 and 24.1 and 22.4 and 62.3 and 32.9 and 18.7 and 38.2 and 47.6"}, {"measurement": "liver free cholesterol (Free CH), individual animals", "setting": "[3]; [4]", "result": "40.3 and 36.2 and 35.7 and 37.4 and 37.7 and 32.3 and 38.3 and 39.6 and 40.5"}, {"measurement": "liver lathosterol, individual animals", "setting": "[3]; [4]", "result": "1.57 and 2.018 and 2.101 and 1.895 and 2.439"}, {"measurement": "liver total cholesterol (TotCh), individual animals", "setting": "[3]; [4]", "result": "63.3 and 52.6 and 59.8 and 100 and 65.2 and 57 and 77.8 and 88.1"}, {"measurement": "NRs assays: GAL4-LXR+RXR (relative to ctrl, replicates)", "setting": "LXRα", "result": "0.88 and 1.89 and 2.24"}]}
